Measurements published in ChEMBL document CHEMBL2202993, “Non-proteinogenic amino acids in the pThr-2 position of a pentamer peptide that confer high binding affinity for the polo box domain (PBD) of polo-like kinase 1 (Plk1)” (Bioorg Med Chem Lett, 2012).
Numbered stars: 1 amine (or outer) side, 2 acyl side, 3 side chain; on linkers, the order of the positions; unused ones are H or OH. Square brackets hold non-standard residues; d marks the D form. Peptide text beside a SMILES is read from it. X2 = O=C([C@H](Cc1cn(CCCCCCCCc2ccccc2)c2ccccc12)N[*:1])[*:2]; X1 = O=C([C@H](Cc1cn(CCCCCCCCc2ccccc2)cn1)N[*:1])[*:2]; pT = C[C@@H](OP(=O)(O)O)[C@H](N)C(=O)O

Biological target: Serine/threonine-protein kinase PLK1 (Homo sapiens, UniProt P53350)
Sequence (P53350 whole entry, the tested form may be a part): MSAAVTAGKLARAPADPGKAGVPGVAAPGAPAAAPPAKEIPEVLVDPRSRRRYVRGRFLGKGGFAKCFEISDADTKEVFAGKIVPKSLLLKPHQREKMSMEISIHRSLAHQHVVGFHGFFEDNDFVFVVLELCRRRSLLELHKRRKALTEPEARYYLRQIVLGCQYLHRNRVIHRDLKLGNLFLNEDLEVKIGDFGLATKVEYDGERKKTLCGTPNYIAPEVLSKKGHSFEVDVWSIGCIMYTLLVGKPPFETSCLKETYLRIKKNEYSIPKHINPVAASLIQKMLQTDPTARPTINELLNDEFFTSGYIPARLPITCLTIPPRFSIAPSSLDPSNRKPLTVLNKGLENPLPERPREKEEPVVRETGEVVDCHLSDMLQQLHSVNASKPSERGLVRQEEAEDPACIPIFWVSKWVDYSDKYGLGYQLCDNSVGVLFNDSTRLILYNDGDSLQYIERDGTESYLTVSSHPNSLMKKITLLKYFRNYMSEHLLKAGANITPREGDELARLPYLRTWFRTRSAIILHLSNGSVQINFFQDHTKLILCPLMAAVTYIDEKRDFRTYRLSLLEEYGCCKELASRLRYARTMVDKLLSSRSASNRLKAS
Test: Competitive binding affinity to GFP-HA-fused PLK1 polo box domain expressed in HEK293A cells using biotinylated p-T38 peptide as substrate after 1 hr by ELISA
Design: species or system HEK293-A

Row | SMILES | IC50
1 | CC(=O)N1CCC[C@H]1C(=O)N[C@@H](CC(C)C)C(=O)N[C@@H](Cc1cn(CCCCCCCCc2ccccc2)cn1)C(=O)N[C@@H](CO)C(=O)N[C@H](C(N)=O)[C@@H](C)OP(=O)(O)O (Ac-PL[X1]S[pT]-NH2) | 0.32 µM
2 | CC(=O)N1CCC[C@H]1C(=O)N[C@@H](CC(C)C)C(=O)N[C@@H](Cc1cn(CCCCCCCCc2ccccc2)c2ccccc12)C(=O)N[C@@H](CO)C(=O)N[C@H](C(N)=O)[C@@H](C)OP(=O)(O)O (Ac-PL[X2]S[pT]-NH2) | 9.3 µM
